The record followed here is paper PMC6446940 (ChemMedChem, 2018).

Where two headings read alike, the source gives them in different places.

Data set [1] has as its system panel of HIV-1 Env pseudoviruses. It is filed as cell-based.
The subject of data set [2] is HIV-1 Env pseudovirus QA790.204I.ENV.A4. Put plainly: Single-cycle assay TZM-bl, Env pseudovirus panel.
Data set [3] relates to HIV-1 Env pseudovirus 9021_14.B2.4571. The data set can be described thus: Single-cycle assay TZM-bl, Env pseudovirus panel.
In a further data set the test system is MT-2 cells. The data set can be described thus: Cytotoxicity. It is filed as cell-based, human. The settings on record: read-out: MT-2 CC50, MTS, mean ± SD, n=3.
The subject of data set [4] is HIV-1 Env pseudovirus BJ613.W6M.ENV.E1. Put plainly: Single-cycle assay, Paired Infant and Maternal Env clones.
Data set [5] relates to HIV-1 Env pseudovirus QA013.70I.ENV.H1. The data set can be described thus: Single-cycle assay TZM-bl, Env pseudovirus panel.
The subject of a further data set is TZM-bl cells. Put plainly: Cytotoxicity. It is filed as cell-based. The settings on record: read-out: TZMb-l CC50; TZM-bl cells, 3 days, MTS; mean ± SD, n=3.
Data set [6] deals with HIV-1 Env pseudovirus QG393.60M.ENV.B7. The data set can be described thus: Single-cycle assay TZM-bl, Env pseudovirus panel.
Data set [7] concerns HIV-1 Env pseudovirus BG505-T332N. Put plainly: Single-cycle assay TZM-bl, Env pseudovirus panel.
For the next data set, the system named is human PBMC. The data set can be described thus: Cytotoxicity. As to conditions: human PBMC, 7 days, MTS. It is filed as cell-based.
The test system of data set [8] is HIV-1 Env pseudovirus BG505.W6M.ENV.C2. Put plainly: Single-cycle assay, Paired Infant and Maternal Env clones.
Data set [9] deals with HIV-1 Env pseudovirus QB726.70M.ENV.C4. The data set can be described thus: Single-cycle assay TZM-bl, Env pseudovirus panel.
Data set [10] concerns HIV-1 Env pseudovirus CRF02_AG, clone 33. Put plainly: Single-cycle assay TZM-bl, Env pseudovirus panel.
In data set [11] the test system is HIV-1 Env pseudovirus ZM109F.PB4. The data set can be described thus: Single-cycle assay TZM-bl, Env pseudovirus panel.
Data set [12] has as its system HIV-1 Env pseudovirus HIV-25711-2, clone 4. Put plainly: Single-cycle assay TZM-bl, Env pseudovirus panel.
For a further data set, the system named is HIV-1LAI. The data set can be described thus: Multi-cycle infection assay in PBMC. As to conditions: read-out: IC50 HIV-1LAI; human PBMC; CXCR4-tropic lab-adapted virus; p24, 7 days.
Data set [13] deals with HIV-1 Env pseudovirus MG505.W0M.ENV.A2. Put plainly: Single-cycle assay, Paired Infant and Maternal Env clones.
Data set [14] deals with HIV-1 Env pseudovirus CRF02_AG, clone 253. Put plainly: Single-cycle assay TZM-bl, Env pseudovirus panel.
The nature of data set [15]: Cytotoxicity. It is filed as cell-based, human. The settings on record: human, MT-2 cells, MT-2 CC50, MT-2 cells, MTS; mean ± SD, n=3.
Data set [16] in a line: Cytotoxicity. It is filed as cell-based. As to conditions: human, TZM-bl cells, TZMb-l CC50, TZM-bl cells, 3 days, MTS; mean ± SD, n=3.
Data set [17] deals with HIV-1 Env pseudovirus QD435.100M.ENV.E1. Put plainly: Single-cycle assay TZM-bl, Env pseudovirus panel.
Another data set relates to HIV-1IIIB. The data set can be described thus: Multi-cycle infection assay in MT-2 cells. It is filed as cell-based. The settings on record: read-out: MT-2 IC50, p24, mean ± SD, n=3.

On to `Cc1nc([C@@H](CN)NC(=O)c2ccc(-c3ccc(F)c(F)c3)[nH]2)sc1CO` (single isomer, unassigned) [NBD-14113, reference compound], for which the IC50 in data set [1] (read-out: IC50 Mean ± SEM: Overall (n=34), mean over 34 HIV-1 Env pseudoviruses) was determined as 3.9 ± 0.17 µM; in data set [1] (read-out: IC50 Mean ± SEM: Subtype A (n=5), mean over subtype A pseudoviruses), 3.44 ± 0.36 µM; in data set [1] (read-out: IC50 Mean ± SEM: Subtype B (n=10), mean over subtype B pseudoviruses) it was 3.79 ± 0.18 µM; in data set [1] (read-out: IC50 Mean ± SEM: Subtype C (n=7), mean over subtype C pseudoviruses), 4.04 ± 0.43 µM; in [1] (read-out: IC50 Mean ± SEM: Subtype D (n=3), mean over subtype D pseudoviruses), 3.5 ± 0.75 µM; in [2] (subtype A1/D, NIH # 11901, QA790.204I.ENV.A4, TZM-bl cells), 5.5 ± 0.3 µM. The IC50 turned out to be 3.2 ± 0.2 µM in [3] (subtype B, NIH # 11572, 9021_14.B2.4571, TZM-bl cells); 2.8 ± 0.4 µM in [4] (subtype A, NIH # 11521-B (infant), BJ613.W6M.ENV.E1); 3.5 ± 0.1 µM in data set [5] (subtype D, NIH # 11911, QA013.70I.ENV.H1, TZM-bl cells); 5.9 ± 0.1 µM in data set [6] (subtype A2/D, NIH # 11906, QG393.60M.ENV.B7, TZM-bl cells); 3.3 ± 0.2 µM in data set [7] (subtype A, BG505-T332N, TZM-bl cells); 4.4 ± 0.3 µM in [8] (subtype A, NIH # 11518-B (infant), BG505.W6M.ENV.C2). The IC50 came out at 4 ± 0.2 µM in data set [9] (subtype A, NIH # 11888, QB726.70M.ENV.C4, TZM-bl cells); 3.5 ± 0.2 µM in data set [10] (subtype AG, NIH # 11607, CRF02_AG, clone 33, TZM-bl cells); 1.9 ± 0.1 µM in data set [11] (subtype C, NIH # 11314, ZM109F.PB4, TZM-bl cells); 4.7 ± 0.4 µM in data set [12] (subtype C, NIH # 11506, HIV-25711-2, clone 4, TZM-bl cells); 3.8 ± 1.1 µM in the data set with HIV-1LAI; 4.7 ± 0.8 µM in data set [13] (subtype A, NIH # 11528-M (maternal), MG505.W0M.ENV.A2). Besides, the 50% cytotoxic concentration (CC50) is 96.8 ± 1.8 µM with MT-2 cells, 84.1 ± 1.3 µM with TZM-bl cells and 47.1 ± 2.6 µM with human PBMC.
On to `Cc1nc(C(CN)NC(=O)c2ccc(-c3ccc4c(c3)OCO4)[nH]2)sc1CO` (centres unmarked) [NBD-14110, N-(2-amino-1-(5-(hydroxymethyl)-4-methylthiazol-2-yl)ethyl)-5-(benzo[d][1,3]dioxol-5-yl)-1H-pyrrole-2-carboxamide], for which the IC50 in data set [14] turned out to be 3.2 ± 0.2 µM; in [2] (TZM-bl) it was 2.1 ± 0.6 µM; in [3] (TZM-bl) it was 4.5 ± 0.5 µM; in data set [4], 2.8 ± 0.1 µM; in data set [5] (TZM-bl) it was 2.9 ± 0.3 µM; in [6] (TZM-bl), 5.2 ± 0.3 µM. The IC50 was determined as 4.2 ± 0.5 µM in data set [7] (TZM-bl); 5.9 ± 0.4 µM in data set [17]; 4.8 ± 0.3 µM in data set [8]; 3.8 ± 1.4 µM in the data set with HIV-1IIIB; 3.7 ± 0.3 µM in [9] (TZM-bl); 5 ± 0.3 µM in data set [10] (TZM-bl). Moreover, the IC50 in [11] (TZM-bl) was found to be 4.9 ± 0.1 µM; in data set [12] (TZM-bl) it was 4.4 ± 0.4 µM; in data set [13], 6.1 ± 0.5 µM. The CC50 at 4 days in “Cytotoxicity [15]” is 193 ± 6.3 µM. The compound further gave a CC50 at 3 days in the data set “Cytotoxicity [16]” of 146 ± 7.6 µM.
Consider `NCC(NC(=O)c1ccc(-c2ccc3c(c2)OCO3)[nH]1)c1ncc(CO)s1` (centres unmarked) [NBD-14123, N-(2-amino-1-(5-(hydroxymethyl)thiazol-2-yl)ethyl)-5-(benzo[d][1,3]dioxol-5-yl)-1H-pyrrole-2-carboxamide], for which the IC50 in data set [14] was 3.2 ± 0.2 µM; in [2] (TZM-bl), 1.6 ± 0.1 µM; in data set [3] (TZM-bl) it was 2.1 ± 0.6 µM; in [4], 2.5 ± 0.1 µM; in [5] (TZM-bl), 2.5 ± 0.4 µM; in data set [6] (TZM-bl), 5.9 ± 0.2 µM. The IC50 in data set [7] (TZM-bl) amounted to 4 ± 0.5 µM; in data set [17], 5.3 ± 0.4 µM; in [8], 4.4 ± 0.1 µM; in data set [9] (TZM-bl) it was 3.5 ± 0.1 µM; in [10] (TZM-bl), 3.5 ± 0.4 µM; in data set [11] (TZM-bl) it was 3 ± 0.2 µM. The IC50 in data set [12] (TZM-bl) came to 5.7 ± 0.7 µM; in [13], 3.7 ± 0.2 µM. Besides, in the data set “Cytotoxicity [15]”, the CC50 at 4 days amounted to 192 ± 2.6 µM. The same compound came in with a CC50 at 3 days in the data set “Cytotoxicity [16]” of 142 ± 2.6 µM.
As to `CNCC(NC(=O)c1ccc(-c2ccc3c(c2)OCO3)[nH]1)c1nc(CO)cs1` (centres unmarked) [NBD-14159, 5-(benzo[d][1,3]dioxol-5-yl)-N-(1-(4-(hydroxymethyl)thiazol-2-yl)-2-(methylamino)ethyl)-1H-pyrrole-2-carboxamide], the IC50 in data set [14] was found to be 3.1 ± 0.1 µM; in data set [2] (TZM-bl) it was 4 ± 0.4 µM; in data set [3] (TZM-bl), 3.7 ± 0.3 µM; in data set [4], 3 ± 0.1 µM; in [5] (TZM-bl) it was 4.3 ± 0.7 µM; in data set [6] (TZM-bl) it was 3.8 ± 0.4 µM. Moreover, the IC50 in data set [7] (TZM-bl) is 3.3 ± 0.2 µM; in data set [17], 3.5 ± 0.2 µM; in data set [8], 4.7 ± 0.5 µM; in the data set with HIV-1IIIB it was 2.98 ± 0.1 µM; in [9] (TZM-bl), 2.7 ± 0.2 µM; in data set [10] (TZM-bl), 2.7 ± 0.2 µM. Moreover, the IC50 in data set [11] (TZM-bl) was 3.3 ± 0.1 µM; in data set [12] (TZM-bl), 5.8 ± 0.3 µM; in data set [13], 4.6 ± 0.1 µM. Moreover, the CC50 in the data set on MT-2 cells turned out to be 180 ± 2 µM; in the data set on TZM-bl cells it was 95.8 ± 1.4 µM.

Broadly, the IC50 is the point on the concentration scale where inhibition reaches its midpoint. Broadly, the CC50 is the concentration giving 50% cytotoxicity.
